System: Healthy Articular Chondrocytes (HACs)
Experiment: LPS-stimulated intracellular ROS (CM-H2DCFDA) in healthy chondrocytes
Type: cell-based, human
Settings: 0.1 μM and 1 μM, 1 h pretreatment, then LPS 1 μg/ml for 48 h
Description: Human articular chondrocytes (HAC) were transiently transfected with a siRNA control or targeting USP16 as described in Example 2. 36 hours post knockdown, cells were stimulated with LPS 1 μg/ml) for 48 h. Healthy Articular Chondrocytes (HACs) were pretreated with 0.1- and 1-μM Compound 2 for 1 h and then stimulated with LPS (1 μg/ml) for 48 h. At the end of the treatment, fluorescent dye, CM-H2DCFDA (final concentration 10 μl of 20 μM) was added to cells and incubated for 30 min in CO2 incubator to measure the intracellular ROS produced in these cells. After incubation, the cells were washed with cold-phosphate buffered saline and the fluorescence intensity of the stained cells was measured at an excitation and emission wavelength of 485 nm and 530 nm respectively. Fluorescence intensity was then normalized for cell number using Hoechst staining.
Chondrocytes were pretreated with 0.1- and 1-μM CA for 1 h and then stimulated with LPS (1 μg/m)l for 48 h. For siRNA experiment, LPS stimulation was performed 36 hours after knockdown for additional 48 h. […] After incubation, the cells were washed with cold-phosphate buffered saline and the fluorescence intensity of the stained cells was measured at an excitation and emission wavelength of 485 nm and 530 nm respectively. Fluorescence intensity was then normalized for cell number using Hoechst staining.

C#Cc1ccc(CNC(=O)c2cc(C(=O)CCl)cn2C)cc1 [Compound 2]
inflammation-induced oxidative stress (intracellular ROS): reduced inflammation-induced oxidative stress in healthy chondrocytes in a dose-dependent manner

Source: patent US12606827B2, “Compounds for treatment of osteoarthritis” (Altos Labs, Inc., priority 2020, dated 2026)
